In data set [1] the test system is LNCaP (lymph node metastasis of prostate cancer). The data set is described as follows: Methylene Blue Growth Inhibition Assay. It is filed as cell-based. As to conditions: Homo sapiens, 72 h, 3 days. On the procedure:
(§1) Tumor cell lines used in this assay were BT474 (human breast carcinoma) and LNCaP (lymph node metastasis of prostate cancer). HFF (normal human foreskin fibroblast) was also included. All cell lines were cultured in RPMI 1640 media (Invitrogen Corporation 22400-071) containing 10% Fetal Bovine Serum (FBS) at 37° C. in a humidified 5% CO2 incubator. Cells were harvested using trypsin/EDTA, counted using a hemacytometer and plated in 96-well tissue culture plates (Costar 35-3075), 100 uL per well, at the following densities: BT474 15,000 cells/well, LNCaP 5,000 cells/well and HFF 5,000 cells/well. 10 mM stocks of compounds in DMSO were serially diluted in DMSO through nine 3-fold dilutions in 96-well plates (Costar Corning 3363), and stored at −80C. The next day, compound dilutions were thawed and 4 uL of each transferred to 662 uL RPMI 1640+100 ug/mL gentamicin, resulting in twice the final required test concentrations. 100 uL of compounds diluted in RPMI 1640 were added to all cell lines. The final concentration of DMSO in all wells, including controls, was 0.3%. Cells were incubated at 37C, 5% CO2 for 3 days. Medium was removed by aspiration. Cell biomass was estimated by staining cells with 80 uL methylene blue (Sigma M9140, 0.5% in 50:50 ethanol:water), and incubating at room temperature for 1 hour. Stain was aspirated and the plates rinsed by immersion in water, then air-dried. Stain was released from cells by adding 100 uL of solubilizing solution (1% N-lauroyl sarcosine, sodium salt, Sigma L5125, in PBS) and incubating at room temperature for at least 30 minutes. Plates were shaken and the optical density at 620 nm was measured on a microplate reader. Percent inhibition of cell growth was calculated relative to vehicle-treated control wells. Concentration of compound that inhibits 50% of cell growth (IC50) was interpolated using non-linear regression (Levenberg-Marquadt) and the equation, y=Vmax*(1−(x̂n/K̂n+x̂n)))+Y2. [Ref: Mager, M. E. (1972) Data Analysis in Biochemistry and Biophysics. New York: Academic Press]

The subject of data set [2] is HFF (normal human foreskin fibroblast). The data set is described as follows: Methylene Blue Growth Inhibition Assay. It is filed as cell-based. The following applies: 72 h, 3 days. On the procedure:
as §1

For data set [3], the system named is BT474 (human breast carcinoma). The data set is described as follows: Methylene Blue Growth Inhibition Assay. The class given is cell-based. The following applies: BT-474, 72 h, BT474, 3 days. On the procedure: as §1
Another data set has as its target T1, FL AKT1 (Homo sapiens, UniProt P31749).
T1 construct: Full-length human AKT1 gene was amplified by PCR; His tag (from vector pFastBacHTb; own knowledge that this vector adds an N-terminal 6xHis and TEV site) (N); made in house; host or cells: baculovirus; virus produced in Sf9, protein expressed in T. ni insect cells
In words: Full-length AKT enzyme assay (substrate phosphorylation, SPA). It is filed as biochemical. As to conditions: 4 uM ATP.

The nature of data set [4]: Solubility in 50 mM phosphate buffer at pH 7.4. The class given is physicochemical. As to conditions: aqueous buffer.
The next data set concerns the target T2, FL AKT2 (Homo sapiens, UniProt P31751).
T2 construct: 0.025 um, FL AKT2
The data set is described as follows: Full-length AKT enzyme assay (substrate phosphorylation, SPA). The class given is biochemical. The following applies: 4 uM ATP.

Structures are written as SMILES. Converted amounts (≈) assume the structure as drawn.

T2 sequence (P31751 whole entry): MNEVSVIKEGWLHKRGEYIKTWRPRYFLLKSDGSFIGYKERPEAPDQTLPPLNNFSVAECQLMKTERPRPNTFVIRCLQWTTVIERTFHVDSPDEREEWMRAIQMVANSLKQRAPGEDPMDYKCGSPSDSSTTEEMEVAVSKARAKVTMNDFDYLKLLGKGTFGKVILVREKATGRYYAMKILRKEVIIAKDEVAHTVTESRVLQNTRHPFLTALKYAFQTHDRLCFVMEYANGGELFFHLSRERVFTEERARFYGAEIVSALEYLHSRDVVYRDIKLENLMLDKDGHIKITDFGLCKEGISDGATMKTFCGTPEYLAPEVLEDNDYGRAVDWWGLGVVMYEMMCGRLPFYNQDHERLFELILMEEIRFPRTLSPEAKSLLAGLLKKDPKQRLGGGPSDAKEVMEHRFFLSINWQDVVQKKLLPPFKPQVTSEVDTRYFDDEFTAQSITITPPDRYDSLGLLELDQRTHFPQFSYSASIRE
T1 sequence (P31749 whole entry): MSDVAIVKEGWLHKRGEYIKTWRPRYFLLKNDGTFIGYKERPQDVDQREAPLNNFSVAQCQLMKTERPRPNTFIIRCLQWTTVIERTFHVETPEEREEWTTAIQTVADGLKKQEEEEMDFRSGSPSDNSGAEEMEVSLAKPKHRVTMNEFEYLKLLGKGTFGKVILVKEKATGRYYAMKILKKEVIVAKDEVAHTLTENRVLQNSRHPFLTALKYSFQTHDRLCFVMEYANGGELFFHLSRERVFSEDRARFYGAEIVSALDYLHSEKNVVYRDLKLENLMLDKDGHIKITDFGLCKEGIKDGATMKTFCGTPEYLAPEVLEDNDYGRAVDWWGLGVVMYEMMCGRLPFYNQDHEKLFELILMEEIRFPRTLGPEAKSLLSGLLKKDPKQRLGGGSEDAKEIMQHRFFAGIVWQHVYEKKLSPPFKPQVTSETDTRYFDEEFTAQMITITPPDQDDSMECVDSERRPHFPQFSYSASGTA

Broadly, the IC50 is the concentration that inhibits the measured activity by half. For orientation: solubility means the dissolved amount per volume that the medium holds. Higher therefore signals a readily soluble substance. Consider `CCn1c(-c2nonc2N)nc2c(C#CC(C)(C)O)ncc(OCCCN3CCCCC3)c21` [Example 1, 4-(2-(4-amino-1,2,5-oxadiazol-3-yl)-1-ethyl-7-{[3-(1-piperidinyl)propyl]oxy}-1H-imidazo[4,5-c]pyridin-4-yl)-2-methyl-3-butyn-2-ol], for which the IC50 in data set [1] worked out at 0.096 µM; in data set [2], 17.7 µM; in data set [3], 0.496 µM; on FL AKT1 it was 0.003 µM; against FL AKT2, 0.025 µM. The solubility in data set [4] was 35 µM (≈ 15.9 µg/mL).

As for `CCn1c(-c2nonc2N)nc2c(C#CC(C)(C)O)ncc(OCCCN3CCCC3)c21` [Example 2, 4-(2-(4-amino-1,2,5-oxadiazol-3-yl)-1-ethyl-7-{[3-(1-pyrrolidinyl)propyl]oxy}-1H-imidazo[4,5-c]pyridin-4-yl)-2-methyl-3-butyn-2-ol], the IC50 in data set [1] is 0.096 µM; in data set [2], greater than 15 µM; in data set [3], 0.437 µM; against FL AKT1, 0.002 µM; at FL AKT2 it was 0.016 µM. The same compound had a solubility in data set [4] of 152 µM (≈ 66.8 µg/mL).

For the compound `CCn1c(-c2nonc2N)nc2c(C#CC(C)(C)O)ncc(OCC(CN)CC(C)C)c21` (centres unmarked) [Example 12, 4-[7-{[2-(aminomethyl)-4-methylpentyl]oxy}-2-(4-amino-1,2,5-oxadiazol-3-yl)-1-ethyl-1H-imidazo[4,5-c]pyridin-4-yl]-2-methyl-3-butyn-2-ol], the IC50 was 0.081 µM in data set [1], 26.4 µM in data set [2] and 0.556 µM in data set [3]. Further, the concentration in solution in data set [4] (solubility) was 164 µM (≈ 72.4 µg/mL).

Take `CCCCC(CN)COc1cnc(C#CC(C)(C)O)c2nc(-c3nonc3N)n(CC)c12` (centres unmarked) [Example 13, 4-[7-{[2-(aminomethyl)hexyl]oxy}-2-(4-amino-1,2,5-oxadiazol-3-yl)-1-ethyl-1H-imidazo[4,5-c]pyridin-4-yl]-2-methyl-3-butyn-2-ol]: the IC50 in data set [1] was determined as 0.032 µM; in data set [2] it was 6.65 µM; in data set [3] it was 0.088 µM. Besides, the concentration in solution in data set [4] (solubility) was 108 µM (≈ 47.7 µg/mL).

For `CCn1c(-c2nonc2N)nc2c(C#CC(C)(C)O)ncc(OCC3(CN)CC3)c21` [Example 15, 4-[7-({[1-(aminomethyl)cyclopropyl]methyl}oxy)-2-(4-amino-1,2,5-oxadiazol-3-yl)-1-ethyl-1H-imidazo[4,5-c]pyridin-4-yl]-2-methyl-3-butyn-2-ol], the IC50 is 0.11 µM in data set [1], greater than 30 µM in data set [2] and 0.093 µM in data set [3]. Besides, the solubility in data set [4] was determined as 160 µM (≈ 65.8 µg/mL).

Regarding `CCCC(CCN)Oc1cnc(C#CC(C)(C)O)c2nc(-c3nonc3N)n(CC)c12` (centres unmarked) [Example 16, 4-[7-{[1-(2-aminoethyl)butyl]oxy}-2-(4-amino-1,2,5-oxadiazol-3-yl)-1-ethyl-1H-imidazo[4,5-c]pyridin-4-yl]-2-methyl-3-butyn-2-ol], the IC50 turned out to be 0.007 µM in data set [1], 1.08 µM in data set [2] and 0.192 µM in data set [3]. Besides, in data set [4], the solubility is 179 µM (≈ 76.5 µg/mL).

Regarding `CCn1c(-c2nonc2N)nc2c(C#CC(C)(C)O)ncc(OC(CCN)C3CCCCC3)c21` (centres unmarked) [Example 18, 4-[7-[(3-amino-1-cyclohexylpropyl)oxy]-2-(4-amino-1,2,5-oxadiazol-3-yl)-1-ethyl-1H-imidazo[4,5-c]pyridin-4-yl]-2-methyl-3-butyn-2-ol], the IC50 is 0.061 µM in data set [1], 3.21 µM in data set [2] and 0.051 µM in data set [3]. In data set [4], this compound gave a solubility of 112 µM (≈ 52.4 µg/mL).

The values above are taken from patent US20090227616A1, “INHIBITORS OF AKT ACTIVITY” (SMITHKLINE BEECHAM CORPORATION, a corporation, priority 2005, published 2009).
